This is an account of results in patent US7713968B2, “Substituted arylcyclopentenes as therapeutic agents” (Allergan, Inc., priority 2008, dated 2010).

Each structure is given as a SMILES string.

This assay concerns lashes and adjacent hairs of the treated eye. Description: Observation of lashes in glaucoma patients treated with bimatoprost in one eye. In kind it is in vivo. The note with it: glaucoma patient treated in only one eye. The text has this:
In the course of treating patients having glaucoma, treatment may only be appropriate in one eye. […] The lash appearance on the lids of the treated eyes would have appeared quite attractive if it represented a bilateral phenomenon. As a result of its asymmetric nature, the long lashes on one side could be construed as disturbing from a cosmetic standpoint. A systemic examination was preformed as a result of the asymmetric phenomenon. It soon became apparent that this altered appearance was not an isolated finding. […] Definite differences could be identified to varying degrees in the lashes and adjacent hairs of all patients who were taking the drug on a unilateral basis for longer than 6 months.
The changes in the lashes were apparent on gross inspection in several patients once attention was focused on the issue. In those with light colored hair and lashes, the differences were only seen easily with the aid of the high magnification and lighting capabilities of the slit lamp biomicroscope. In the course of glaucoma follow-up examination, attention is generally immediately focused on the eye itself. As a result of the high power magnification needed only one eye is seen at a time and the eye is seen at a high enough power that the lashes are not in focus. […]

Take `CCNC(=O)CCC/C=C\C[C@@H]1[C@@H](/C=C/[C@@H](O)CCc2ccccc2)[C@H](O)C[C@@H]1O` [bimatoprost]: the “lashes in the treated eye compared with the non-treated eye” value was “longer, thicker, and fuller”.
